Measured values taken from US8435975B2, “Steroidal esters of 17-oximino-5-androsten-3beta-ol” (Council of Scientific & Industrial Research, priority 2007, dated 2013).
Where “and” joins values, the source holds several entries; their conditions need not be identical. Identical values can stand only once. Entries after “also recorded” stand apart in the source; their conditions may differ.

Experiments:
[1] = test system: human prostate cancer cell line (DU-145); assay: Growth inhibitory activity assay (MTT assay), in vitro antiproliferative activity; format: cell-based; conditions: DU-145 cells; for % growth inhibition (mean ± SEM) / inhibition at 0.01 µg/mL / inhibition at 0.5 µg/mL / inhibition at 1 µg/mL / inhibition at 2 µg/mL / inhibition at 5 µg/mL: 48 hr; for antiproliferative activity (in words): 0.01-5.0 μg/ml; for inhibition at 0.01 µg/mL / inhibition at 0.5 µg/mL / inhibition at 1 µg/mL / inhibition at 2 µg/mL / inhibition at 5 µg/mL: Homo sapiens, DU-145, 48 h, read-out: % growth inhibition (mean ± SEM)
Procedure: 1) In Vitro Antiproliferative Activity Against Human Prostate Cancer Cell Line (DU-145)
Compounds were screened for antiproliferative activity on human prostate cell line DU-145 at National Centre of Human Genome Studies and Research. Panjab University, Chandigarh. All the compounds (10 to 16), Finasteride and starting material (9) were tested at five different concentrations: 0.01, 0.5, 1.0, 2.0, and 5.0 μg/ml. Finasteride was the positive control in this growth inhibitory assay.
Growth Inhibitory Activity Assay (MTT Assay)
We investigated the effect of newly synthesized compounds on cell growth inhibition using MTT assay. This assay quantifies the viable cells by observing the reduction of tetrazolium salt, MTT to formazan crystals by the live cells. Based on the absorbance of the cell sample after the test is carried out, cell viable can be measured [Loveland, B. E.; Jones, T. G.; Mackay. I. R.; Vaillant, F.; Wang, Z. X.; Hertzog, P. J. Biochem. International 1992, 27, 501 and Wright, S. A.; Thomas, L. N.; Douglas, R. C.; Lazier, C. B.; Rittmaster, R. S. J. Clin. Invest. 1996, 98, 2558]. Cells were cultured at a density of 5×10^3 cells/well in 96 well plates at 37° C. in 5.0% CO2 atmosphere and were allowed to attach for 24 hr. The cells were treated in triplicate with graded concentration of sample and reference drug Finasteride at 37° C. for 48 hr. A 20 μl aliquot of MTT solution was added directly to all the appropriate wells. Following 4 hr of incubation at […], the media was removed and formazan crystals, which results from the reduction of MTT by active cell were dissolved in 100 μl DMSO and vigorously mixed to dissolve the reacted dye. The absorbance of each well was read on Elisa plate reader (Merck) at 570 nm. The spectrometer was calibrated to zero absorbance using culture medium without cells. The relative cell viability (%) related to control well containing cell culture medium without drug was calculated by [A]test/[A]control×100. % Growth Inhibition=[OD]control−[OD]test/[OD]control×100 Results: […]

5α-reductase = assay: In vivo effect on serum testosterone level (5α-reductase inhibitory activity), ELISA; parameters: species or system Sprague Dawley rats; conditions: for Serum levels of Testosterone, T: Sprague Dawley male rats, intraperitoneal, Finasteride 40 mg/kg and equimolar dose of compounds, 6 hr after treatment; for effect on serum testosterone level (in words): rats, 6 hr post dose, compared to control
Procedure: Animals (Sprague Dawley male rats weighing 150-200 g) were divided into 3 groups; vehicle (control), Finasteride (standard), treated (test sample) and each group consist of 5 animals. Sprague Dawley rats were treated intraperitoneally with Finasteride 40 mg/kg and equimolar dose of compounds. After 6 hr of treatment, blood was withdrawn by cardiac puncture under diethyl ether anesthesia and serum was separated from cells by centrifugation. Plasma testosterone values were obtained by ELISA plate reader at […] and are given in ng/ml.
The aliquots of 50 μl of each of standards, control and unknown (serum samples) were added to Testosterone Antibody coated wells. 100 μl of HRP-testosterone conjugate was added to all the wells and the plates were shaken gently on a shaker for proper mixing of the reagents. Following 4 hr of incubation at 37° C., the incubation mixture was removed. The wells were washed with phosphate buffer for 5-6 times (200 μl each time), followed by addition of 100 μl of TMB/H2O2 substrate in each of the wells. The plates were further incubated at 37° C. for 20 minutes. At the end of incubation reaction was stopped by using 100 μl of 0.5 M H2SO4 as stopping reagent. The absorbance of each well was read on Elisa plate reader at 450 nm [Rassaie, M. J.; Kumari, G. L.; Pandey, P. K.; Gupta, N.; Kochupillai, N.; Grover, P. K. Steroids 1992, 57, 288 and Hosoda, H.; Yoshida, H.; Sakai, Y.; Miyairi, S.; Nambara, T. Chem. Pharm. Bull. 1980, 28, 3035]
Intact male rats (Sprague Dawley, 200-250 g) were used in the designed study in which various compounds were compared for in vivo 5α-reductase inhibitory potency, as judged by the their ability to attenuate the conversion of testosterone into dihydrotestosterone (DHT). […] The procedure measure T equally well, and method met all the requirement of precision, accuracy, sensitivity and selectivity.

[2] = In vitro cytotoxicity using mouse macrophages (acute toxicity), MTT assay; format: cell-based; conditions: both sexes, Balb C; mouse macrophages, from linear equation of MTT data; read-out: LC50 (concentration lethal to 50% population of cells)
Procedure: (§1) All steroids were dissolved in ethanol and diluted to appropriate concentration: 0.01, 0.5, 1.0, 2.0, 5.0 μg/ml from the two stock solution of 1 mg/ml and […]. Stocks were maintained at room temperature.
(§2) […] Approximately 1 ml of Phosphate buffer saline preincubated at 37° C. was injected into cavity. The abdomen was lavaged for 10 min and fluid along with macrophages were taken out using a syringe into polypropylene tube. The phosphate solution was spun at 800 rpm for 5-10 min and cells were resuspended in 1 ml RPMI media. Cell number was counted using haemocytometer.
(§3) Cells (mouse macrophages) were plated at a density of 5×10^3 cells/well in 96 plate at 37° C. in 5% CO2. Cells were exposed in graded concentration of compounds at designated various concentration. Each concentration was tested in triplicate wells. After 48 hr fresh MTT 20 μl (1 mg/ml) was added directly to all the wells and culture was incubated for 4 hr at 37° C. During this incubation, MTT was converted into a water insoluble formazan complex by metabolic activity of viable cells. Formazan crystal were taken and dissolved in 100 μl of DMSO, which give light pink colour. The absorbance of each well was read on Elisa plate reader (Merck) at 570 nm. The spectrometer was calibrated to zero absorbance using culture medium without cells. The relative cell viability (%) related to control well containing cell culture medium without drug was calculated by [A]test/[A]control×100. % Cell Viability=[A]test/[A]control×100 [A]test=absorbance test sample [A]control=absorbance control sample Results: LC50: Concentration of the Compound in μg/ml (μm), Lethal to 50% Population of Cells.
(§4) The assay quantifies the viable cells, after […] incubation of cells with five different concentrations.

[3] = test system: mouse macrophages (Balb C); assay: as above; format: cell-based
Procedure: as §1, §2, §3, §4

[4] = both, Balb C, mouse, 48 h, 0.01 μg/ml
[5] = both, Balb C, mouse, 48 h, 0.5 μg/ml
[6] = both, Balb C, mouse, 48 h, 1 μg/ml
[7] = both, Balb C, mouse, 48 h, 2 μg/ml
[8] = both, Balb C, mouse, 48 h, 5 μg/ml

| Structure (SMILES) | % growth inhibition (mean ± SEM) ([1]; 5.0 μg/ml) | antiproliferative activity (in words) [1] | inhibition at 0.01 µg/mL ([1]; 0.01 μg/ml) | inhibition at 0.5 µg/mL ([1]; 0.5 μg/ml) | inhibition at 1 µg/mL ([1]; 1.0 μg/ml) | inhibition at 2 µg/mL ([1]; 2.0 μg/ml) | inhibition at 5 µg/mL ([1]; 5.0 μg/ml) | Serum levels of Testosterone, T (5α-reductase) | effect on serum testosterone level (in words) (5α-reductase) | CC50 at 48 h [2] | % viable Cells (mean ± SEM) [3, 4] | % viable Cells (mean ± SEM) [3, 5] | % viable Cells (mean ± SEM) [3, 6] | % viable Cells (mean ± SEM) [3, 7] | % viable Cells (mean ± SEM) [3, 8] | other results |
| --- | --- | --- | --- | --- | --- | --- | --- | --- | --- | --- | --- | --- | --- | --- | --- | --- |
| C[C@]12CC[C@H](OC(=O)c3ccc(Cl)cc3)CC1=CC[C@@H]1[C@@H]2CC[C@]2(C)C(=NO)CC[C@@H]12 [Compound 10, 17-oximino-5-androsten-3β-yl 4-chlorobenzoate] | 84.47 ± 0.74% | relatively less activity than above compounds but still better than Finasteride | 43.4 ± 0.77% | 57.1 ± 5.96% | 64.9 ± 7.4% | 69.2 ± 7.48% | 81 to 84% | 0.95 ng/mL | loss of activity | 24 µM | 88.22 ± 0.41% | 87.21 ± 0.46% | 77.40 ± 0.43% | 77.14 ± 0.21% | 73.149 ± 0.13% | – |
| C[C@]12CC[C@H](OC(=O)c3ccc([N+](=O)[O-])cc3)CC1=CC[C@@H]1[C@@H]2CC[C@]2(C)C(=NO)CC[C@@H]12 [Compound 11, 17-oximino-5-androsten-3β-yl 4-nitrobenzoate] | 81.53 ± 1.79% | relatively less activity than above compounds but still better than Finasteride | 41.5 ± 0.71% | 60.5 ± 4.9% | 67.3 ± 3.7% | 74 ± 0.77% | 81 to 84% | 1.01 ng/mL | loss of activity | 19.5 µM | 88.79 ± 0.19% | 86.50 ± 0.107% | 76.74 ± 0.107% | 76.30 ± 0.46% | 75.85 ± 0.259% | – |
| Cc1ccc(C(=O)O[C@H]2CC[C@@]3(C)C(=CC[C@@H]4[C@@H]3CC[C@]3(C)C(=NO)CC[C@@H]43)C2)cc1 [Compound 12, 17-oximino-5-androsten-3β-yl 4-methylbenzoate] | 92.94 ± 0.13% | more potent than the reference Finasteride | 42.6 ± 2.21% | 63 ± 4.78% | 85 ± 3.99% | 89.5 ± 0.96% | > 90% | 1.16 ng/mL | increased activity | 22 µM | 79.39 ± 0.77% | 77.46 ± 0.75% | 73.03 ± 0.36% | 69.10 ± 0.84% | 65.26 ± 2.79% | – |
| C[C@]12CC[C@H](OC(=O)c3ccccc3)CC1=CC[C@@H]1[C@@H]2CC[C@]2(C)C(=NO)CC[C@@H]12 [Compound 13, 17-oximino-5-androsten-3β-yl benzoate] | 91.10 ± 2.10% | more potent than the reference Finasteride | 47 ± 1.67% | 48.9 ± 1.66% | 67.6 ± 1.62% | 85.9 ± 4.08% | > 90% | 1.05 ± 0.08 ng/mL and 1.05 ng/mL | – | 89.4 µM | – | – | – | – | – | % viable Cells (mean ± SEM) ([3]; mouse macrophages, 0.01 μg/ml): 87.71 ± 0.29%; % viable Cells (mean ± SEM) ([3]; mouse macrophages, 0.5 μg/ml): 84.74 ± 0.27%; % viable Cells (mean ± SEM) ([3]; mouse macrophages, 1.0 μg/ml): 83.61 ± 0.20%; % viable Cells (mean ± SEM) ([3]; mouse macrophages, 2.0 μg/ml): 83.85 ± 0.28%; % viable Cells (mean ± SEM) ([3]; mouse macrophages, 5.0 μg/ml): 82.99 ± 0.36%; toxicity to mouse macrophages (in words) ([3]; mouse macrophages, 0.01-5.0 μg/ml): non toxic to mouse macrophages |
| C[C@]12CC[C@H](OC(=O)c3ccc(N)cc3)CC1=CC[C@@H]1[C@@H]2CC[C@]2(C)C(=NO)CC[C@@H]12 [Compound 14, 17-oximino-5-androsten-3β-yl 4-aminobenzoate] | 91.02 ± 1.25% | more potent than the reference Finasteride | 71.8 ± 4.24% | 62.1 ± 11.4% | 79.5 ± 7.76% | 83.9 ± 6.7% | > 90% | 1.19 ng/mL | increased activity | 29.4 µM | 85.75 ± 0.28% | 77.69 ± 0.38% | 76.80 ± 0.23% | 75.82 ± 0.33% | 72.82 ± 0.28% | – |
| C[C@]12CC[C@H](O)CC1=CC[C@@H]1[C@@H]2CC[C@]2(C)C(=NO)CC[C@@H]12 [Parent Compound 9, 17-oximino-5-androsten-3β-ol] | Ni^a | not shown any significant inhibitory effect on cell proliferation; also recorded: not shown significant antiproliferative activity | – | – | – | – | – | – | – | – | – | – | – | – | – | % growth inhibition (mean ± SEM) ([1]; 0.01 μg/ml): Ni^a; % growth inhibition (mean ± SEM) ([1]; 0.5 μg/ml): Ni^a; % growth inhibition (mean ± SEM) ([1]; 1.0 μg/ml): Ni^a; % growth inhibition (mean ± SEM) ([1]; 2.0 μg/ml): Ni^a |
